Test results as given in the supplement of paper PMC7287046.

What was measured:
Settings in all cases: exposure time: 72 h
U251 [1] = test: HSA synergy score (Combenefit); higher = more synergy
Description: (§1)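 The same 6x6 dose matrices of drug pairs on glioma cell lines (72 h, CellTiter-Glo viability normalised to DMSO, triplicate) were scored with Combenefit. The Loewe, Bliss and HSA synergy scores are given; paper thresholds are Loewe 7.8 and Bliss 2.5.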

U87 [2] = test: as above
Description: as §1

U118 [3] = test: as above
Description: as §1

KNS-42 [4] = test: as above
Description: as §1

T98G [5] = test: as above
Description: as §1

SF268 [6] = test: as above
Description: as §1

AM-38 [7] = test: as above
Description: as §1

SF539 [8] = test: as above
Description: as §1

SNB75 [9] = test: as above
Description: as §1

U251 [10] = test: Loewe synergy score (Combenefit); higher = more synergy; extreme values may be limits of the assay
Description: as §1

U87 [11] = test: as above
Description: as §1

U118 [12] = test: as above
Description: as §1

KNS-42 [13] = test: as above
Description: as §1

T98G [14] = test: as above
Description: as §1

SF268 [15] = test: as above
Description: as §1

AM-38 [16] = test: as above
Description: as §1

SF539 [17] = test: as above
Description: as §1

SNB75 [18] = test: as above
Description: as §1

U251 [19] = test: Bliss synergy score (Combenefit); higher = more synergy; extreme values may be limits of the assay
Description: as §1

U87 [20] = test: as above
Description: as §1

U118 [21] = test: as above
Description: as §1

KNS-42 [22] = test: as above
Description: as §1

T98G [23] = test: as above
Description: as §1

SF268 [24] = test: as above
Description: as §1

AM-38 [25] = test: as above
Description: as §1

SF539 [26] = test: as above
Description: as §1

SNB75 [27] = test: as above
Description: as §1

U251 [28] = test: Chou-Talalay combination index (dimensionless); higher = less synergy (more antagonism)
Description: (§2)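 Glioma cell lines were treated for 72 h with a 6x6 matrix of two drugs, each in twofold dilutions with the top dose at the single-drug IC50. Viability was read by CellTiter-Glo and normalised to DMSO controls, in triplicate. The Chou-Talalay combination index was computed by the median effect principle; CI < 0.8 means synergy.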

U87 [29] = test: as above
Description: as §2

U118 [30] = test: as above
Description: as §2

T98 = test: as above
Description: as §2

AM38 = test: as above
Description: as §2

KNS42 = test: as above
Description: as §2

SF268 [31] = test: as above
Description: as §2

SF539 [32] = test: as above
Description: as §2

SNB75 [33] = test: as above
Description: as §2

Structure (SMILES)	HSA synergy score (U251 [1])	HSA synergy score (U87 [2])	HSA synergy score (U118 [3])	HSA synergy score (KNS-42 [4])	HSA synergy score (T98G [5])	HSA synergy score (SF268 [6])	HSA synergy score (AM-38 [7])	HSA synergy score (SF539 [8])	HSA synergy score (SNB75 [9])	Loewe synergy score (U251 [10])	Loewe synergy score (U87 [11])	Loewe synergy score (U118 [12])	Loewe synergy score (KNS-42 [13])	Loewe synergy score (T98G [14])	Loewe synergy score (SF268 [15])	Loewe synergy score (AM-38 [16])	Loewe synergy score (SF539 [17])	Loewe synergy score (SNB75 [18])	Bliss synergy score (U251 [19])	Bliss synergy score (U87 [20])	Bliss synergy score (U118 [21])	Bliss synergy score (KNS-42 [22])	Bliss synergy score (T98G [23])	Bliss synergy score (SF268 [24])	Bliss synergy score (AM-38 [25])	Bliss synergy score (SF539 [26])	Bliss synergy score (SNB75 [27])	Chou-Talalay combination index (U251 [28])	Chou-Talalay combination index (U87 [29])	Chou-Talalay combination index (U118 [30])	Chou-Talalay combination index (T98)	Chou-Talalay combination index (AM38)	Chou-Talalay combination index (KNS42)	Chou-Talalay combination index (SF268 [31])	Chou-Talalay combination index (SF539 [32])	Chou-Talalay combination index (SNB75 [33])
Nc1ccn([C@@H]2O[C@H](CO)[C@@H](O)C2(F)F)c(=O)n1 [Gemcitabine] + Cc1cc([C@@H](C)Nc2ccccc2C(=O)O)c2nc(N3CCOCC3)cc(=O)n2c1 [AZD6482]	1.85	0	10.3	5.37	10.5	7.02	4.54	10.4	4.1	1.85	0	2.14	5.37	5.66	1.75	3.23	2.33	3.53	1.85	0	1.86	2.32	3.93	0.693	0.237	0.274	0	0.758	1.15	0.887	0.889	0.967	0.868	0.783	0.738	0.607
C=CCc1cccc(/C=N/NC(=O)CN2CCN(Cc3ccccc3)CC2)c1O [PAC-1] + CCOc1nc(NC(=O)Cc2cc(OC)ccc2OC)cc(N)c1C#N [JNK inhibitor VIII]	3.65	5.02	2.56	11.2	3.49	5.39	3.74	7.4	6.97	0.13	4.97	2.38	7.1	1.34	0.606	0.484	2.49	5.04	2.01	0.501	0.51	0	0	1.09	0	3.99	0.0865	0.85	0.794	0.622	0.982	0.965	0.944	0.951	0.58	0.91
CC(=O)O[C@@]12CO[C@@H]1C[C@H](O)[C@@]1(C)C(=O)[C@H](O)C3=C(C)[C@@H](OC(=O)[C@H](O)[C@@H](NC(=O)OC(C)(C)C)c4ccccc4)C[C@@](O)([C@@H](OC(=O)c4ccccc4)[C@H]21)C3(C)C [Docetaxel] + O=c1[nH]c2ccccc2n1C1CCN(Cc2ccc(-c3[nH]c4cc5ncnc5cc4nc3-c3ccccc3)cc2)CC1 [Akt inhibitor VIII]	0.629	4.37	8.23	15.2	0	11.6	11	2.57	6.81	0	2.83	3.76	10.8	0	3.03	5.53	1.09	0.96	0.156	1.56	5.46	1.6	0	1.32	0.132	0.217	0.989	0.933	0.625	0.9	0.84	0.894	0.838	0.885	0.939	0.796
Nc1ccn([C@@H]2O[C@H](CO)[C@@H](O)C2(F)F)c(=O)n1 [Gemcitabine] + C=CCc1cccc(/C=N/NC(=O)CN2CCN(Cc3ccccc3)CC2)c1O [PAC-1]	1.09	0	1.58	22.7	3.73	3.55	0.966	3.14	5.49	0.777	0	0	21.9	0.986	0.48	0.966	0.062	0.834	0.174	0	0	0.716	0.518	0.0746	0	0.236	0.278	0.722	1.06	0.999	0.935	1	0.675	0.965	0.863	0.978
C=CCc1cccc(/C=N/NC(=O)CN2CCN(Cc3ccccc3)CC2)c1O [PAC-1] + Cc1cc([C@@H](C)Nc2ccccc2C(=O)O)c2nc(N3CCOCC3)cc(=O)n2c1 [AZD6482]	1.75	2.96	4.06	2.36	11.9	4.9	10.7	0.0112	21.4	1.75	2.96	1.77	2.36	10.2	0.594	10.2	0.0112	14.6	1.75	2.96	0.918	2.36	5.94	0.355	8.49	0	10.9	0.847	0.635	0.962	0.865	0.845	0.882	0.979	1.01	0.976
